In this assay the target is human factor Xa (Homo sapiens, UniProt P00742). Put plainly: biochemical. The note with it: human factor Xa 3 nM, chromogenic substrate S-2222, HNPT buffer pH 7.8, room temperature; apparent Ki calculated from IC50 according to Cheng and Prusoff.
human factor Xa, sequence (P00742 235-488 limits assumed): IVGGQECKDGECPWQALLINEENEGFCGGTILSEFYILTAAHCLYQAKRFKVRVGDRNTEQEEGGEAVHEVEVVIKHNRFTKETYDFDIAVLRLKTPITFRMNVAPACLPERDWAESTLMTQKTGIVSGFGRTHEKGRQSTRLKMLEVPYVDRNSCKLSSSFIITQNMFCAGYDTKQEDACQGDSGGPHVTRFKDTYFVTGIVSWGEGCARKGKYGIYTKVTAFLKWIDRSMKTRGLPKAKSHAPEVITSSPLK
human factor Xa, sequence (P00742 41-179 partner limits assumed): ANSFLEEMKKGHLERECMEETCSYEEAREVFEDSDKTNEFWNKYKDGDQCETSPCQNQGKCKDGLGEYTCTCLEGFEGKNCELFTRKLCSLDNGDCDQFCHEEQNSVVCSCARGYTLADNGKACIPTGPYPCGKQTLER

Protocol: Factor Xa activity was measured spectrophotometrically in microtiter plates in a final volume of 150 μl using the following conditions: Inhibition of human factor Xa (Enzyme Research Laboratories) was tested at an enzyme concentration of 3 nM using the chromogenic substrate S-2222 (Chromogenix AB, Mölndal, Sweden) at 200 nM. The reaction kinetics of the enzyme and the substrate were linear with both time and the enzyme concentration. The inhibitors were dissolved in DMSO and tested at various concentrations up to 100 μM. The inhibitors were diluted using HNPT buffer consisting of HEPES 100 mM, NaCl 140 mM, PEG 6000 0.1% and Tween 80 0.02%, pH 7.8. […]
The velocity of the reaction was determined by the autoreader from the slope of the linear regression fit to 7 time points (1 minute). The initial velocity for each inhibitor concentration was determined by the slope of at least 4 time points in the linear phase by a linear regression fit (mOD/min^2). Apparent dissociation constants Ki were calculated according to Cheng and Prusoff [Cheng, Y. C.; Prusoff, W. H. Relationship between the inhibition constant (Ki) and the concentration of the inhibitor that causes 50 percent inhibition (IC50) of an enzyme reaction. Biochem. Pharmacol. 1973, 22, 3099-3108.] based on the IC50 and the respective Km, determined previously (Ki=IC50/(I+S/Km)). […]

As for `CN1CCC(N2CCN(C(=O)Cc3csc(NC(=O)c4ccc(Br)s4)n3)CC2)CC1` [Ex. 47.3, 5-bromo-thiophene-2-carboxylic acid (4-{2-[4-(1-methyl-piperidin-4-yl)-piperazin-1-yl]-2-oxo-ethyl}-thiazol-2-yl)-amide], the Ki was 26 nM.

These data come from patent publication US7718659B2, “Heteroarylacetamide inhibitors of factor Xa” (priority 2004, dated 2010).
